Measurements published in ChEMBL document CHEMBL1158870, “Antitumor agents. 180. Chemical Studies and cytotoxic evaluation of cumingianosides and cumindysoside A, antileukemic triterpene glucosides with a 14,18-cycloapotirucallane skeleton” (1997).

Tests used:
CCRF-CEM = assay: Cytotoxicity against human CCRF-CEM cells by SRB assay; type: functional
[1] = Cytotoxicity against human HL60(TB) cells by SRB assay; type: functional, HL-60(TB); details: HL-60
K562 = assay: Cytotoxicity against human K562 cells by SRB assay; type: functional
MOLT-4 = assay: Cytotoxicity against human MOLT4 cells by SRB assay; type: functional
RPMI-8226 = assay: Cytotoxicity against human RPMI8226 cells by SRB assay; type: functional
SR = assay: Cytotoxicity against human SR cells by SRB assay; type: functional
A549 = assay: Cytotoxicity against human A549 cells by SRB assay; type: functional
EKVX = assay: Cytotoxicity against human EKVX cells by SRB assay; type: functional
HOP-62 = assay: Cytotoxicity against human HOP62 cells by SRB assay; type: functional
HOP-92 = assay: Cytotoxicity against human HOP92 cells by SRB assay; type: functional
NCI-H226 = assay: Cytotoxicity against human NCI-H226 cells by SRB assay; type: functional
NCI-H23 = assay: Cytotoxicity against human NCI-H23 cells by SRB assay; type: functional
NCI-H322M = assay: Cytotoxicity against human NCI-H322M cells by SRB assay; type: functional
NCI-H460 = assay: Cytotoxicity against human NCI-H460 cells by SRB assay; type: functional
NCI-H522 = assay: Cytotoxicity against human NCI-H522 cells by SRB assay; type: functional
COLO 205 = assay: Cytotoxicity against human COLO205 cells by SRB assay; type: functional
HCC 2998 = assay: Cytotoxicity against human HCC2998 cells by SRB assay; type: functional
HCT-116 = assay: Cytotoxicity against human HCT116 cells by SRB assay; type: functional
HCT-15 = assay: Cytotoxicity against human HCT15 cells by SRB assay; type: functional
HT-29 = assay: Cytotoxicity against human HT29 cells by SRB assay; type: functional
KM12 = assay: Cytotoxicity against human KM12 cells by SRB assay; type: functional
SW-620 = assay: Cytotoxicity against human SW620 cells by SRB assay; type: functional
SF-268 = assay: Cytotoxicity against human SF268 cells by SRB assay; type: functional
SF-295 = assay: Cytotoxicity against human SF295 cells by SRB assay; type: functional
SNB-19 = assay: Cytotoxicity against human SNB19 cells by SRB assay; type: functional
SNB-75 = assay: Cytotoxicity against human SNB75 cells by SRB assay; type: functional
U-251 = assay: Cytotoxicity against human U251 cells by SRB assay; type: functional
LOX IMVI = assay: Cytotoxicity against human LOXIMVI cells by SRB assay; type: functional
Malme-3M = assay: Cytotoxicity against human MALME-3M cells by SRB assay; type: functional
M14 = assay: Cytotoxicity against human M14 cells by SRB assay; type: functional
SK-MEL-2 = assay: Cytotoxicity against human SK-MEL-2 cells by SRB assay; type: functional
SK-MEL-28 = assay: Cytotoxicity against human SK-MEL-28 cells by SRB assay; type: functional
SK-MEL-5 = assay: Cytotoxicity against human SK-MEL-5 cells by SRB assay; type: functional
UACC-257 = assay: Cytotoxicity against human UACC257 cells by SRB assay; type: functional
UACC-62 = assay: Cytotoxicity against human UACC62 cells by SRB assay; type: functional
IGROV-1 = assay: Cytotoxicity against human IGROV1 cells by SRB assay; type: functional
OVCAR-3 = assay: Cytotoxicity against human OVCAR-3 cells by SRB assay; type: functional
OVCAR-4 = assay: Cytotoxicity against human OVCAR4 cells by SRB assay; type: functional
OVCAR-5 = assay: Cytotoxicity against human OVCAR5 cells by SRB assay; type: functional
OVCAR-8 = assay: Cytotoxicity against human OVCAR8 cells by SRB assay; type: functional
SK-OV-3 = assay: Cytotoxicity against human SKOV3 cells by SRB assay; type: functional
[2] = Cytotoxicity against human 786-O cells by SRB assay; type: functional; details: 786-0
A498 = assay: Cytotoxicity against human A498 cells by SRB assay; type: functional
ACHN = assay: Cytotoxicity against human ACHN cells by SRB assay; type: functional
CAKI-1 = assay: Cytotoxicity against human Caki1 cells by SRB assay; type: functional
RXF 393 = assay: Cytotoxicity against human RXF393 cells by SRB assay; type: functional
SN12C = assay: Cytotoxicity against human SN12C cells by SRB assay; type: functional
UO-31 = assay: Cytotoxicity against human UO31 cells by SRB assay; type: functional
PC-3 = assay: Cytotoxicity against human PC3 cells by SRB assay; type: functional
DU-145 = assay: Cytotoxicity against human DU145 cells by SRB assay; type: functional
MCF7 = assay: Cytotoxicity against human MCF7 cells by SRB assay; type: functional
[3] = Cytotoxicity against human MCF7/ADR cells by SRB assay; type: functional; details: NCI/ADR-RES
MDA-MB-231 = assay: Cytotoxicity against human MDA-MB-231 cells by SRB assay; type: functional
[4] = Cytotoxicity against human Hs 578T cells by SRB assay; type: functional
MDA-MB-435 = assay: Cytotoxicity against human MDA-MB-435 cells by SRB assay; type: functional
MDA-N = assay: Cytotoxicity against human MDA-N cells by SRB assay; type: functional
BT-549 = assay: Cytotoxicity against human BT549 cells by SRB assay; type: functional
T47D = assay: Cytotoxicity against human T47D cells by SRB assay; type: functional
Leukemia cell = assay: Cytotoxicity against human Leukemia cells by SRB assay; type: functional
NSCLC = assay: Cytotoxicity against human NSCLC cells by SRB assay; type: functional
[5] = Cytotoxicity against human Colon cancer cells by SRB assay; type: functional; details: Cancer cell lines
[6] = Cytotoxicity against human CNS cancer cells by SRB assay; type: functional; details: Cancer cell lines
[7] = Cytotoxicity against human melanoma cells by SRB assay; type: functional; details: Melanoma cell
[8] = Cytotoxicity against human ovarian cancer cells by SRB assay; type: functional; details: Cancer cell lines
[9] = Cytotoxicity against human prostate cancer cells by SRB assay; type: functional; details: Cancer cell lines
[10] = Cytotoxicity against human breast cancer cells by SRB assay; type: functional; details: Cancer cell lines
[11] = Cytotoxicity against human renal cancer cells by SRB assay; type: functional; details: Cancer cell lines

CC(=O)OC[C@H]1O[C@@H](O[C@@H]2C[C@H]3C(C)(C)[C@H](OC(C)=O)CC[C@]3(C)[C@H]3CC[C@@H]4[C@]5(CC[C@@]4(C)[C@@]32C)O[C@@H]([C@H](O)C(C)(C)O)C[C@@H]5C)[C@H](O)[C@@H](O)[C@@H]1O
GI50 (CCRF-CEM): 3.16 µM
GI50 [1]: 2.95 µM
GI50 (K562): 4.47 µM
GI50 (MOLT-4): 3.16 µM
GI50 (RPMI-8226): 3.39 µM
GI50 (SR): 3.09 µM
GI50 (A549): 5.13 µM
GI50 (EKVX): 9.55 µM
GI50 (HOP-62): 14.1 µM
GI50 (HOP-92): 10 µM
GI50 (NCI-H226): 10.7 µM
GI50 (NCI-H23): 12.9 µM
GI50 (NCI-H322M): 1.7 µM
GI50 (NCI-H460): 6.61 µM
GI50 (NCI-H522): 7.08 µM
GI50 (COLO 205): 4.07 µM
TGI (COLO 205): 14.3 µM
GI50 (HCC 2998): 3.63 µM
TGI (HCC 2998): 15.9 µM
GI50 (HCT-116): 3.8 µM
TGI (HCT-116): 15.1 µM
GI50 (HCT-15): 2.19 µM
TGI (HCT-15): 5.9 µM
GI50 (HT-29): 1.82 µM
TGI (HT-29): 4.3 µM
GI50 (KM12): 2 µM
TGI (KM12): 7.7 µM
GI50 (SW-620): 10.5 µM
TGI (SW-620): 22.9 µM
GI50 (SF-268): 9.33 µM
GI50 (SF-295): 6.46 µM
GI50 (SNB-19): 12.6 µM
GI50 (SNB-75): 5.13 µM
GI50 (U-251): 10.7 µM
GI50 (LOX IMVI): 3.63 µM
GI50 (Malme-3M): 10.2 µM
GI50 (M14): 5.01 µM
GI50 (SK-MEL-2): 6.03 µM
GI50 (SK-MEL-28): 10.2 µM
GI50 (SK-MEL-5): 10.7 µM
GI50 (UACC-257): 11.5 µM
GI50 (UACC-62): 6.31 µM
GI50 (IGROV-1): 9.55 µM
GI50 (OVCAR-3): 7.08 µM
GI50 (OVCAR-4): 3.39 µM
GI50 (OVCAR-5): 5.13 µM
GI50 (OVCAR-8): 9.33 µM
GI50 (SK-OV-3): 7.94 µM
GI50 [2]: 8.71 µM
GI50 (A498): 11.7 µM
GI50 (ACHN): 9.33 µM
GI50 (CAKI-1): 25.7 µM
GI50 (RXF 393): 4.07 µM
GI50 (SN12C): 11.2 µM
GI50 (UO-31): 7.76 µM
GI50 (PC-3): 3.8 µM
GI50 (DU-145): 10.7 µM
GI50 (MCF7): 1.07 µM
GI50 [3]: 16.2 µM
GI50 (MDA-MB-231): 10.2 µM
GI50 [4]: 9.33 µM
GI50 (MDA-MB-435): 8.32 µM
GI50 (MDA-N): 7.08 µM
GI50 (BT-549): 12 µM
GI50 (T47D): 5.62 µM
TGI (Leukemia cell): 17.3 µM
TGI (NSCLC): 21.8 µM
TGI [5]: 12.3 µM
TGI [6]: 22.2 µM
TGI [7]: 20.7 µM
TGI [8]: 20.1 µM
TGI [9]: 18.5 µM
TGI [10]: 21.3 µM
TGI [11]: 20.5 µM

CC(=O)OC[C@H]1O[C@@H](O[C@@H]2C[C@H]3C(C)(C)[C@H](OC(C)=O)CC[C@]3(C)[C@H]3CC[C@@]45C[C@H](O)C[C@H](C)[C@@H]4CC=C5[C@@]32C)[C@H](O)[C@@H](O)[C@@H]1O
GI50 (CCRF-CEM): 2.14 µM
GI50 [1]: 2.09 µM
GI50 (K562): 2.95 µM
GI50 (MOLT-4): 2.14 µM
GI50 (RPMI-8226): 2.82 µM
GI50 (SR): 1.82 µM
GI50 (A549): 4.79 µM
GI50 (EKVX): 7.08 µM
GI50 (HOP-62): 11.2 µM
GI50 (HOP-92): 4.9 µM
GI50 (NCI-H226): 4.9 µM
GI50 (NCI-H23): 3.89 µM
GI50 (NCI-H322M): 6.61 µM
GI50 (NCI-H460): 3.31 µM
GI50 (NCI-H522): 3.09 µM
GI50 (COLO 205): 1.82 µM
TGI (COLO 205): 3.2 µM
GI50 (HCC 2998): 2.09 µM
TGI (HCC 2998): 3.8 µM
GI50 (HCT-116): 1.78 µM
TGI (HCT-116): 3.5 µM
GI50 (HCT-15): 8.91 µM
TGI (HCT-15): 22.3 µM
GI50 (HT-29): 1.7 µM
TGI (HT-29): 3.3 µM
GI50 (KM12): 2.4 µM
TGI (KM12): 7.6 µM
GI50 (SW-620): 4.57 µM
TGI (SW-620): 18.1 µM
GI50 (SF-268): 4.07 µM
GI50 (SF-295): 3.89 µM
GI50 (SNB-19): 3.89 µM
GI50 (SNB-75): 3.72 µM
GI50 (U-251): 3.39 µM
GI50 (LOX IMVI): 1.82 µM
GI50 (Malme-3M): 9.33 µM
GI50 (M14): 3.89 µM
GI50 (SK-MEL-2): 2.45 µM
GI50 (SK-MEL-28): 8.32 µM
GI50 (SK-MEL-5): 3.89 µM
GI50 (UACC-257): 3.39 µM
GI50 (UACC-62): 5.25 µM
GI50 (IGROV-1): 3.16 µM
GI50 (OVCAR-3): 3.89 µM
GI50 (OVCAR-4): 4.37 µM
GI50 (OVCAR-5): 2.34 µM
GI50 (OVCAR-8): 4.47 µM
GI50 (SK-OV-3): 6.03 µM
GI50 [2]: 4.37 µM
GI50 (A498): 14.1 µM
GI50 (ACHN): 5.13 µM
GI50 (CAKI-1): 9.55 µM
GI50 (RXF 393): 2.63 µM
GI50 (SN12C): 3.98 µM
GI50 (UO-31): 14.8 µM
GI50 (PC-3): 3.16 µM
GI50 (DU-145): 10.5 µM
GI50 (MCF7): 4.47 µM
GI50 [3]: 15.1 µM
GI50 (MDA-MB-231): 2.04 µM
GI50 [4]: 4.07 µM
GI50 (MDA-MB-435): 3.72 µM
GI50 (MDA-N): 4.27 µM
GI50 (BT-549): 11 µM
GI50 (T47D): 4.37 µM
TGI (Leukemia cell): 7 µM
TGI (NSCLC): 18.1 µM
TGI [5]: 8.8 µM
TGI [6]: 15 µM
TGI [7]: 14.4 µM
TGI [8]: 13.5 µM
TGI [9]: 16.7 µM
TGI [10]: 17.9 µM
TGI [11]: 18.8 µM
